From patent US5001255A, “Idene analogs of mevalonolactone and derivatives thereof” (Sandoz Pharm. Corp., priority 1988, dated 1991)

How the values were obtained:
[1] = test system: 3β-hydroxysterol synthesis; test: Test B. In Vivo Cholesterol Biosynthesis Inhibition Test; parameters: species or system rat (male Wistar Royal Hart); conditions: Rattus norvegicus; rats, oral, 0.5% carboxymethylcellulose; i.p. sodium [1-14C]acetate one hour later; serum two hours after mid-dark; read-out: ED50 (dose producing a 50% inhibition of 3β-hydroxysterol synthesis)
Procedure: Test B. In Vivo Cholesterol Biosynthesis Inhibition Test:
In vivo studies utilize male Wistar Royal Hart rats weighing 150±20 g. which have been kept for 7-10 days on an
altered light cycle (6:30 A.M.-6:30 P.M. dark) housed two per cage and fed powdered Purina Rat Chow and water ad libitum. Three hours before the diurnal maximum of cholesterol synthesis at mid-dark, the rats are orally administered the test substance (e.g., 0.01-200 mg./kg. body weight) dissolved or as a suspension in 0.5% carboxymethylcellulose in a volume of 1 ml./100 g. body weight. Controls receive vehicle alone. One hour after receiving the test substance (or the vehicle alone), the rats are injected intraperitoneally with about 25 μCi/100 g. body weight of sodium [1-^14 C]acetate 1-3 mCi/mmol. Two hours after mid-dark, blood samples are obtained under sodium hexobarbitol anesthesia, and the serum is separated by centrifugation.
The [^14 C]digitonides are then counted by liquid scintillation spectrometry. After correcting for efficiencies, the results are calculated in nCi (nanocuries) of 3β-hydroxysterol formed per 100 ml. of serum. Inhibition of 3β-hydroxysterol synthesis is calculated from the reduction in the nCi of 3β-hydroxysterols formed from test qroups compared to controls.
ED50 is the dose of the test substance calculated or observed to produce a 50% inhibition of 3β-hydroxysterol synthesis.

HMG-CoA reductase = molecular target: T1, HMG-CoA reductase (Rattus norvegicus, UniProt P51639); test: Test A. In Vitro Microsomal Assay of HMG-CoA Reductase Inhibition; assay type: biochemical, rat (male Sprague-Dawley); conditions: rat liver microsomes; [14C]HMG-CoA substrate; test substance 0.0001-2,000 μmolar; read-out: IC50 (concentration producing a 50% inhibition of HMG-CoA reductase activity)
T1 sequence (P51639 1-887): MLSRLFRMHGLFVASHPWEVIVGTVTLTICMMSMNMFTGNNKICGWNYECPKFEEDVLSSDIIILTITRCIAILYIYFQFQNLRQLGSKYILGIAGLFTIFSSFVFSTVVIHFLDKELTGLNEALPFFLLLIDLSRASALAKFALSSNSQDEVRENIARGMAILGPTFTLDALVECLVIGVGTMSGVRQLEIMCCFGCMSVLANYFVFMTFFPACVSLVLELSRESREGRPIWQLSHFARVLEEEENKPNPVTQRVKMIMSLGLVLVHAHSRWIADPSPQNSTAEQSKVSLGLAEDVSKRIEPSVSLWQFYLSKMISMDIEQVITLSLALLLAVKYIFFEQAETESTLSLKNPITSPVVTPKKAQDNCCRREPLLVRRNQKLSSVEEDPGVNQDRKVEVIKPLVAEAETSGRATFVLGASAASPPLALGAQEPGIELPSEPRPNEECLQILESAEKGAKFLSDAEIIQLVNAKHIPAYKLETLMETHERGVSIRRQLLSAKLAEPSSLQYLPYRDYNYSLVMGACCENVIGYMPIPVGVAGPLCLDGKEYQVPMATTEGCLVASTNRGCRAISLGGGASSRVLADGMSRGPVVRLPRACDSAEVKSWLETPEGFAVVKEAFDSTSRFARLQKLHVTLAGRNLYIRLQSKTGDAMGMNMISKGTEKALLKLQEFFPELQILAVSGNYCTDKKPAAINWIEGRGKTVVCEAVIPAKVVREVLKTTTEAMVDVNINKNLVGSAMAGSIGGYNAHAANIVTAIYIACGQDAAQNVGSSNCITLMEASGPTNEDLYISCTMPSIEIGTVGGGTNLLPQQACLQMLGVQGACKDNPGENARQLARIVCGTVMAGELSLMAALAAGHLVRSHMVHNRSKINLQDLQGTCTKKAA
Procedure: Test A. In Vitro Microsomal Assay of HMG-CoA Reductase Inhibition:
200 μl. aliquots (1.08-1.50 mg./ml.) of rat liver microsomal suspensions, freshly prepared from male Sprague-Dawley rats (150-225 g. body weight), in Buffer A with 10 mmol. dithiothreitol are incubated with 10 μl. of a solution of the test substance in dimethylacetamide and assayed for HMG-CoA reductase activity as described in Ackerman et al., J. Lipid Res. 18, 408-413 (1977), the concentration of the test substance in the assay system being 0.0001-2,000 μmolar. In the assay the microsomes are the source of the HMG-CoA reductase enzyme which catalyzes the reduction of HMG-CoA to mevalonate. The assay employs a chloroform extraction to separate the product, [^14 C]mevalonolactone, formed by the HMG-CoA reductase reduction of the substrate, [^14 C]HMG-CoA. [^3 H]mevalonolactone is added as an internal reference. Inhibition of HMG-CoA reductase is calculated from the decrease in specific activity ([^14 C/^3 H]mevalonate) of test groups compared to controls.
IC50 is the concentration of the test substance in the assay system calculated or observed to produce a 50% inhibition of HMG-CoA reductase activity.

| SMILES | IC50 (HMG-CoA reductase) [nM] | ED50 [1] [mg/kg] |
| --- | --- | --- |
| CC[C@H](C)C(=O)O[C@H]1CCC=C2C=C[C@H](C)[C@H](CC[C@@H]3C[C@@H](O)CC(=O)O3)[C@H]21 [Compactin, reference compound] |  | 3.5 |
| CCC1(CC)C(/C=C/C(O)CC(O)CC(=O)O)=C(c2ccc(F)cc2)c2ccccc21 (centres unmarked) [Example 17] | 4700 |  |
| CC(C)C1C(/C=C/[C@@H]2C[C@@H](O)CC(=O)O2)=C(c2ccc(F)cc2)c2ccccc21 (some centres unmarked) [Example 20] | 530 |  |
| Cc1cc(C)cc(C2=C(/C=C/[C@H]3C[C@@H](O)CC(=O)O3)C3(CCCC3)c3ccccc32)c1 (relative stereo) [Example 7] | 150 |  |

The next lines start with results.

| IC50 (HMG-CoA reductase) [nM] | SMILES | ED50 [1] [mg/kg] |
| --- | --- | --- |
| 19 | CCOC(=O)CC(O)CC(O)/C=C/C1=C(c2ccc(F)cc2)c2ccccc2C12CC2 (centres unmarked) [Example 24] | 0.71 |
| 3 | O=C(O)C[C@H](O)C[C@H](O)/C=C/C1=C(c2ccc(F)cc2)c2ccccc2C12CCCC2 |  |
| 5 | O=C(O)C[C@H](O)C[C@H](O)/C=C/C1=C(c2ccc(F)cc2)c2ccccc2C12CCCC2 (relative stereo) [Example 2, Sodium erythro-(E)-3,5-dihydroxy-7-[3'-(4"-fluorophenyl)spiro[cyclopentane-1,1'(1H)-inden]-2'-yl]hept-6-enoate] | 0.07 |
| 7 | Cc1cc(C)cc(C2=C(/C=C/[C@@H](O)C[C@@H](O)CC(=O)O)C3(CCCC3)c3ccccc32)c1 (relative stereo) [Example 8, Sodium erythro-(E)-3,5-dihydroxy-7-[3'-(3",5"-dimethylphenyl)spiro[cyclopentane-1,1'(1H)-inden]-2'-yl]hept-6-enoate] | 0.31 |
